Molecular target: T1, RARβ (Homo sapiens, UniProt P10826)
T1 sequence (P10826 1-448 isoform P10826-2): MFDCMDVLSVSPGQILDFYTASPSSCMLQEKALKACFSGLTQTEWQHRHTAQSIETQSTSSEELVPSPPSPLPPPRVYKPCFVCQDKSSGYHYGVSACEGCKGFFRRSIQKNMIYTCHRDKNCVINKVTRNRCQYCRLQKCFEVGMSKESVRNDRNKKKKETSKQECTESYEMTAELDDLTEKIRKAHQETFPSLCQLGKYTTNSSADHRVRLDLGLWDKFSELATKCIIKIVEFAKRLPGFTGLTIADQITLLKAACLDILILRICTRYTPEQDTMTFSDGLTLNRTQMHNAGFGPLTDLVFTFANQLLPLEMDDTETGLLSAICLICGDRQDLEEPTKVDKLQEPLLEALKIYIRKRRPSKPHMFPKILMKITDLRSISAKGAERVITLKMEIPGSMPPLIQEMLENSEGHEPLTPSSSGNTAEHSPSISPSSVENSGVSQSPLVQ
Test: RAR binding, RARβ
Settings: Kd from IC50 by Cheng-Prussof equation
Method: Non-specific binding was defined as that binding remaining in the presence of 500 nM of the appropriate unlabelled compound. At the end of the incubation period, bound from free ligand were separated. The amount of bound tritiated retinoids was determined by liquid scintillation counting of an aliquot (700 μL) of the supernatant fluid or the hydroxylapatite pellet.
After correcting for non-specific binding, IC50 values were determined. […] The IC50 value was determined graphically from a log-logit plot of the data. The Kd values were determined by application of the Cheng-Prussof equation to the IC50 values, the labeled ligand concentration and the Kd of the labeled ligand.

SMILES | Kd [nM]
CCCCOc1c(C(C)(C)C)cc(/C(C)=C/C=C/C(C)=C/C(=O)O)cc1C(C)(C)C [Compound 7, 2E, 4E, 6E-[7-(3,5-Di-t-butyl-4-n-butoxyphenyl)-3-methyl]-octa-2,4,6-trienoic acid] | 5
CCCOc1c(C(C)(C)C)cc(/C(C)=C/C=C/C(C)=C/C(=O)O)cc1C(C)(C)C [Compound 8, 2E, 4E, 6E-[7-(3,5-Di-t-butyl-4-n-propoxyphenyl)-3-methyl]-octa-2,4,6-trienoic acid] | 1
CCCCCOc1c(C(C)(C)C)cc(/C(C)=C/C=C/C(C)=C/C(=O)O)cc1C(C)(C)C [Compound 9, 2E, 4E, 6E-[7-(3,5-Di-t-butyl-4-n-pentoxyphenyl)-3-methyl]-octa-2,4,6-trienoic acid] | 5
C=C(c1ccccc1)c1cc(/C(C)=C/C=C/C(C)=C/C(=O)O)cc(C(C)(C)C)c1 [Compound 17, (2E,4E,6E)-7-[3-t-butyl-5-(1-phenyl-vinyl)-phenyl]-3-methyl-octa-2,4,6-trienoic acid] | 3
